Assay results: patent publication US10143711B2, “Pathways to generate hair cells” (Massachusetts Eye & Ear Infirmary, priority 2008, dated 2018)

Legend:
[1] = test system: Atoh1; experiment: Gene silencing with siRNA in neural progenitor cells and Neuro2a (RT-PCR); type: cell-based, mouse; conditions: 200 nM siRNA; for decrease of Atoh1 expression: harvested after 48 hours, neural progenitor cells and Neuro2a
Method: The data shown in Examples 1-3 was corroborated using gene silencing. Briefly, siRNA were designed to silence Atoh1 (NM 007500.4, NM 005172.1) and β-catenin (NM_007614.2 and NM_001904.3), as shown below: Atoh1:
200 nM of each siRNA were transfected using the GeneSilencer™ transfection reagent at 5 μL/mL. Cells were incubated in the presence of the transfection mix for 16 hours and were harvested following a total of 48 hours. Non-targetting siRNA was used as control. Gene silencing was confirmed using RT-PCR. Cells were also transfected with Atoh1, β-catenin, or GFP using the methods described above.

[2] = test system: Atoh1 and β-catenin; experiment: β-catenin and Atoh1 expression in bone marrow derived MSCs on Notch inhibition and β-catenin activation; type: cell-based, human
Text: Notch signaling was inhibited using a γ-secretase inhibitor (DAPT) and β-catenin was activated using a GSK3β inhibitor (GSKi). […] Altered Notch activity was confirmed using CBF-1 luciferase reporter.
Mesenchymal stem cells (MSCs) were isolated from human bone marrow using the methods described by Jeon et al. (Mol. Cell. Neurosci., 34(1):59-68, (2007)). Cells were expanded once before use and cultured in MEM-α cell culture media (Sigma-Aldrich) supplemented with 9% horse serum, 9% fetal calf serum, and penicillin (100 U/mL) and streptomycin (100 μg/mL).

Compound	β-catenin expression levels ([1]; all cell types tested)	decrease of Atoh1 expression [1]	Atoh1 expression ([2]; MSCs with γ-secretase treatment and siRNA suppression of β-catenin)	β-catenin expression ([2]; human bone marrow MSCs, DAPT used at 10 μM and 50 μM)
β-catenin siRNA: siRNA designed to silence β-catenin, SEQ ID NO:17 (GCGCUUGGCUGAACCAUCAUUGUGAAAUUCUUGGCUAUUAUU; listed as RNA, chemistry not given here)	suppressed	about 40%	reduced	
Atoh1 siRNA: siRNA designed to silence Atoh1, SEQ ID NO:16 (GCAACGUUAUCCCGUCCUUUAACAGCGAUGAUGGCACA; listed as RNA, chemistry not given here)		about 45%		
C[C@H](NC(=O)Cc1cc(F)cc(F)c1)C(=O)N[C@H](C(=O)OC(C)(C)C)c1ccccc1 [γ-secretase inhibitor, N—[N-(3,5-difluorophenacetyl)-L-alanyl]-(S)-phenylglycine t-butyl ester]				increased
